The text below walks through data of patent US9512087B2, “Hybrid molecules containing pharmacophores of fluconazole as antifungal agents and their preparation” (Council for Scientific & Industrial Research, priority 2011, dated 2016).

Converted amounts (≈) assume the structure as drawn.

Experiment in all cases: Antifungal MIC, broth dilution
For one assay, the system named is C. krusei ATCC 6258. Type of assay: cell-based. The following applies: end point 48 hours; for MIC50: Pichia kudriavzevii, ATCC6258, RPMI 1640 with MOPS, read-out: Ck01 MIC50.
The next assay concerns C. albicans ATCC 24433. Type of assay: cell-based, Candida albicans. Conditions: end point 48 hours; for MIC80 / MIC50: Candida albicans, ATCC24433, RPMI 1640 with MOPS; for MIC80: read-out: Ca01 A: MIC80; for MIC50: read-out: Ca01 B: MIC50. The method, then: (§1) The compounds of Formula 1 were tested for antifungal activity against Candida albicans, Aspergillus niger and Fusarium proliferatum. In vitro evaluation of antifungal activity was performed by determining the minimum inhibitory concentration (MIC) following standard methods (CLSI: Reference method for broth dilution antifungal susceptibility testing of yeasts; Approved standard, second edition M27-A2, 2002; CLSI: Reference method for broth dilution antifungal susceptibility testing of filamentous fungi; Approved standard M38-A, 2002). Anti-fungal susceptibility testing of these anti-fungal compounds was done by broth dilution method using RPMI 1640 medium with MOPS buffer. Known anti-fungal agents like fluconazole and amphotericin-B were used as positive control. End points were determined after 48 hours visually and by using spectrophotometer wherever necessary. Different dilutions were tried and various sets of experiments performed. The activity parameters are enumerated in Table 5.

A further assay relates to C. tropicalis ATCC 750. Type of assay: cell-based. Conditions: end point 48 hours; for MIC50: Candida tropicalis, ATCC750, RPMI 1640 with MOPS, read-out: Ct01 MIC50.
Another assay deals with A. niger ATCC 16404. Type of assay: cell-based, Aspergillus niger. Conditions: end point 48 hours; for MIC50: Aspergillus niger, ATCC16404, RPMI 1640 with MOPS, read-out: An01 MIC50. The method, then: as §1
Assay [1] relates to F. proliferatum ATCC 10052. Type of assay: cell-based, Fusarium proliferatum. Conditions: end point 48 hours; for MIC50: Fusarium proliferatum, ATCC10052, RPMI 1640 with MOPS, read-out: Fp01 MIC50. The method, then: as §1
The test system of the next assay is A. fumigatus ATCC 46645. Type of assay: cell-based. Conditions: end point 48 hours; for MIC50: Aspergillus fumigatus, ATCC46645, RPMI 1640 with MOPS, read-out: Afm01 MIC50.
A further assay deals with C. neoformans ATCC 34664. Format: cell-based. Conditions: end point 48 hours; for MIC50: Cryptococcus neoformans, ATCC34664, RPMI 1640 with MOPS, read-out: Cn01 MIC50.
A further assay deals with C. glabrata ATCC 90030. Type of assay: cell-based. The following applies: end point 48 hours; for MIC50: Nakaseomyces glabratus, ATCC90030, RPMI 1640 with MOPS, read-out: Cg01 MIC50.

Consider `C[C@@H]1[C@H](O)[C@@H](C)/C=C/C=C/C=C/C=C/C=C/C=C/C=C/[C@H](O[C@@H]2O[C@H](C)[C@@H](O)[C@H](N)[C@@H]2O)C[C@@H]2O[C@](O)(C[C@@H](O)C[C@@H](O)[C@H](O)CC[C@@H](O)C[C@@H](O)CC(=O)O[C@H]1C)C[C@H](O)[C@H]2C(=O)O` [AMB, amphotericin-B, reference compound], for which the “Ck01 MIC50” value in the assay on C. krusei ATCC 6258 (RPMI 1640 with MOPS) is 0.5 mg/L. Besides, in the assay with C. albicans ATCC 24433 (RPMI 1640 with MOPS), the “Ca01 A: MIC80” value was 0.25 mg/L and the “Ca01 B: MIC50” value stood at 0.25 mg/L. Besides, in the assay on C. tropicalis ATCC 750 (RPMI 1640 with MOPS), the “Ct01 MIC50” value came out at 0.5 mg/L. Further, the “An01 MIC50” value with A. niger ATCC 16404 (RPMI 1640 with MOPS) came out at 0.25 mg/L. Also, the “Fp01 MIC50” value in assay [1] (RPMI 1640 with MOPS) turned out to be 2 mg/L. Moreover, the “Afm01 MIC50” value in the assay with A. fumigatus ATCC 46645 (RPMI 1640 with MOPS) was determined as 0.5 mg/L. Moreover, the “Cn01 MIC50” value in the assay with C. neoformans ATCC 34664 (RPMI 1640 with MOPS) worked out at 0.5 mg/L. In addition, the “Cg01 MIC50” value in the assay on C. glabrata ATCC 90030 (RPMI 1640 with MOPS) turned out to be 0.25 mg/L.
Consider `O=C(/C=C/c1ccccc1)c1ccc(OCC(O)(Cn2cncn2)c2ccc(F)cc2F)cc1` (stereo not drawn) [Compound 1A-1], for which the MIC50 (as a rule, the lowest concentration that inhibits either 50% of growth or 50% of the strains tested, depending on the study) with C. krusei ATCC 6258 was more than 2 mg/L; with C. albicans ATCC 24433, 0.06 mg/L (≈ 0.13 µM); in the assay on C. tropicalis ATCC 750, 0.5 mg/L (≈ 1.08 µM); in the assay on A. niger ATCC 16404, more than 2 mg/L; in assay [1], more than 2 mg/L; in the assay with A. fumigatus ATCC 46645, more than 2 mg/L. For the same compound, the MIC50 in the assay with C. neoformans ATCC 34664 came to 1 mg/L (≈ 2.17 µM); in the assay on C. glabrata ATCC 90030, 0.25 mg/L (≈ 0.542 µM). Also, the MIC80 (as a rule, the lowest concentration that inhibits either 80% of growth or 80% of the strains tested, depending on the study) in the assay on C. albicans ATCC 24433 was determined as 0.12 mg/L (≈ 0.26 µM).
Turning to `COc1ccc(/C=C/C(=O)c2ccc(OCC(O)(Cn3cncn3)c3ccc(F)cc3F)cc2)cc1` (stereo not drawn) [Compound 1A-2], the MIC50 was 4 mg/L (≈ 8.14 µM) in the assay with C. krusei ATCC 6258; 0.06 mg/L (≈ 0.122 µM) in the assay on C. albicans ATCC 24433; 0.25 mg/L (≈ 0.509 µM) in the assay on C. tropicalis ATCC 750; 4 mg/L (≈ 8.14 µM) in the assay on A. niger ATCC 16404; more than 4 mg/L in assay [1]; more than 4 mg/L in the assay on A. fumigatus ATCC 46645. The MIC50 was 1 mg/L (≈ 2.03 µM) in the assay on C. neoformans ATCC 34664 and 0.25 mg/L (≈ 0.509 µM) with C. glabrata ATCC 90030. Further, the MIC80 in the assay on C. albicans ATCC 24433 was found to be 0.12 mg/L (≈ 0.244 µM).
For the compound `COc1ccccc1/C=C/C(=O)c1ccc(OCC(O)(Cn2cncn2)c2ccc(F)cc2F)cc1` (stereo not drawn) [Compound 1A-3], the MIC50 in the assay with C. krusei ATCC 6258 was more than 8 mg/L; with C. albicans ATCC 24433, 0.25 mg/L (≈ 0.509 µM); with C. tropicalis ATCC 750 it was 2 mg/L (≈ 4.07 µM); with A. niger ATCC 16404, more than 8 mg/L; in assay [1], more than 8 mg/L; in the assay on A. fumigatus ATCC 46645, more than 8 mg/L. Moreover, the MIC50 in the assay on C. neoformans ATCC 34664 is 8 mg/L (≈ 16.3 µM); in the assay with C. glabrata ATCC 90030, 0.5 mg/L (≈ 1.02 µM). For the same compound, in the assay on C. albicans ATCC 24433, the MIC80 stood at 0.5 mg/L (≈ 1.02 µM).
In the case of `COc1cc(/C=C/C(=O)c2ccc(OCC(O)(Cn3cncn3)c3ccc(F)cc3F)cc2)cc(OC)c1` (stereo not drawn) [Compound 1A-4], the MIC50 in the assay on C. krusei ATCC 6258 was more than 4 mg/L; with C. albicans ATCC 24433, 0.25 mg/L (≈ 0.479 µM); with C. tropicalis ATCC 750, 2 mg/L (≈ 3.83 µM); with A. niger ATCC 16404 it was more than 4 mg/L; in assay [1] it was more than 4 mg/L; in the assay with A. fumigatus ATCC 46645 it was more than 4 mg/L. Besides, the MIC50 in the assay on C. neoformans ATCC 34664 and in the assay with C. glabrata ATCC 90030 was 2 mg/L (≈ 3.83 µM) each time. Also, in the assay on C. albicans ATCC 24433, the MIC80 turned out to be 1 mg/L (≈ 1.92 µM).
For `COc1cc(/C=C/C(=O)c2ccc(OCC(O)(Cn3cncn3)c3ccc(F)cc3F)cc2)cc(OC)c1OC` (stereo not drawn) [Compound 1A-5], the MIC50 was more than 4 mg/L with C. krusei ATCC 6258; 0.25 mg/L (≈ 0.453 µM) with C. albicans ATCC 24433; 1 mg/L (≈ 1.81 µM) in the assay with C. tropicalis ATCC 750; more than 4 mg/L in the assay with A. niger ATCC 16404; more than 4 mg/L in assay [1]; more than 4 mg/L in the assay with A. fumigatus ATCC 46645. Besides, the MIC50 in the assay on C. neoformans ATCC 34664 was more than 4 mg/L; in the assay with C. glabrata ATCC 90030 it was 1 mg/L (≈ 1.81 µM). Moreover, the MIC80 with C. albicans ATCC 24433 turned out to be 1 mg/L (≈ 1.81 µM).
Consider `O=C(/C=C/c1ccc(Cl)cc1)c1ccc(OCC(O)(Cn2cncn2)c2ccc(F)cc2F)cc1` (stereo not drawn) [Compound 1A-6], for which the MIC50 in the assay with C. krusei ATCC 6258 was 2 mg/L (≈ 4.03 µM); in the assay with C. albicans ATCC 24433, 0.5 mg/L (≈ 1.01 µM); in the assay on C. tropicalis ATCC 750, 0.5 mg/L (≈ 1.01 µM); with A. niger ATCC 16404, more than 4 mg/L; in assay [1], more than 4 mg/L; with A. fumigatus ATCC 46645, more than 4 mg/L. In addition, the MIC50 in the assay on C. neoformans ATCC 34664 and in the assay on C. glabrata ATCC 90030 was 0.5 mg/L (≈ 1.01 µM) in each case. The MIC80 with C. albicans ATCC 24433 turned out to be 0.25 mg/L (≈ 0.504 µM).
